Tested on: TNBC cell line MDA-MB-231
Assay: CCK-8 assay, antiproliferative activity against MDA-MB-231
Settings: Homo sapiens, MDA-MB-231, 72 h, read-out: IC50 MDA-MB-231

Compound | IC50
COc1cccc2c1C(=O)c1c(O)c3c(c(O)c1C2=O)C[C@@](O)(C(=O)CO)C[C@@H]3O[C@H]1C[C@H](N)[C@H](O)[C@H](C)O1 [Adriamycin, reference compound] | 2.94 ± 0.12 µM
N[C@@H](Cc1ccc(N(CCCl)CCCl)cc1)C(=O)O [Compound 5, melphalan, reference compound] | > 20 µM
O=CN[C@@H](Cc1ccc(N(CCCl)CCCl)cc1)C(=O)O [Compound 6, formylmerphalan, reference compound] | > 20 µM
CC(C)(C)OC(=O)N[C@@H](Cc1ccc(N(CCCl)CCCl)cc1)C(=O)O [Compound 7, Boc-protected melphalan, reference compound] | > 20 µM
COC(=O)[C@H](Cc1ccc(N(CCCl)CCCl)cc1)NC(=O)CCC(=O)O [Compound 9, reference compound] | > 20 µM
COC(=O)[C@H](Cc1ccc(N(CCCl)CCCl)cc1)NC(=O)CCCC(=O)O [Compound 10, reference compound] | > 20 µM
Cc1ccc2occ(CO)c(=O)c2c1 [Compound 15] | > 20 µM
COc1ccc2occ(CO)c(=O)c2c1 [Compound 16] | > 20 µM
Cc1ccc2occ(COC(=O)c3ccc(N(CCCl)CCCl)cc3)c(=O)c2c1 [Compound 17a, (6-Methyl-4-oxo-4H-chromen-3-yl)methyl 4-(bis(2-chloroethyl)amino)benzoate] | 9.57 ± 0.65 µM
Cc1ccc2occ(COC(=O)[C@H](Cc3ccc(N(CCCl)CCCl)cc3)NC=O)c(=O)c2c1 [Compound 17b, (6-Methyl-4-oxo-4H-chromen-3-yl)methyl (S)-3–(4-(bis(2-chloroethyl)amino)phenyl)-2-formamidopropanoate] | 13.2 ± 1.12 µM
Cc1ccc2occ(COC(=O)[C@H](Cc3ccc(N(CCCl)CCCl)cc3)NC(=O)OC(C)(C)C)c(=O)c2c1 [Compound 17c, (6-Methyl-4-oxo-4H-chromen-3-yl)methyl (S)-3-(4-(bis(2-chloroethyl)amino)phenyl)-2-((tert-butoxycarbonyl)amino)propanoate] | > 20 µM
COC(=O)[C@H](Cc1ccc(N(CCCl)CCCl)cc1)NC(=O)CCC(=O)OCc1coc2ccc(C)cc2c1=O [Compound 17d, (6-Methyl-4-oxo-4H-chromen-3-yl)methyl (S)-4-((3-(4-(bis(2-chloroethyl)amino)phenyl)-1-methoxy-1-oxopropan-2-yl)amino)-4-oxobutanoate] | 11.4 ± 0.2 µM
COC(=O)[C@H](Cc1ccc(N(CCCl)CCCl)cc1)NC(=O)CCCC(=O)OCc1coc2ccc(C)cc2c1=O [Compound 17e, (6-Methyl-4-oxo-4H-chromen-3-yl)methyl (S)-5-((3-(4-(bis(2-chloroethyl)amino)phenyl)-1-methoxy-1-oxopropan-2-yl)amino)-5-oxopentanoate] | 8.32 ± 0.34 µM
COc1ccc2occ(COC(=O)c3ccc(N(CCCl)CCCl)cc3)c(=O)c2c1 [Compound 18a, (6-Methoxy-4-oxo-4H-chromen-3-yl)methyl 4-(bis(2-chloroethyl)amino)benzoate] | 9.47 ± 0.38 µM
COc1ccc2occ(COC(=O)[C@H](Cc3ccc(N(CCCl)CCCl)cc3)NC=O)c(=O)c2c1 [Compound 18b, (6-Methoxy-4-oxo-4H-chromen-3-yl)methyl (S)-3-(4-(bis(2-chloroethyl)amino)phenyl)-2-formamidopropanoate] | 11.5 ± 0.35 µM
COc1ccc2occ(COC(=O)[C@H](Cc3ccc(N(CCCl)CCCl)cc3)NC(=O)OC(C)(C)C)c(=O)c2c1 [Compound 18c, (6-Methoxy-4-oxo-4H-chromen-3-yl)methyl (S)-3-(4-(bis(2-chloroethyl)amino)phenyl)-2-((tert-butoxycarbonyl)amino)propanoate] | 16.7 ± 0.69 µM
COC(=O)[C@H](Cc1ccc(N(CCCl)CCCl)cc1)NC(=O)CCC(=O)OCc1coc2ccc(OC)cc2c1=O [Compound 18d, (6-Methoxy-4-oxo-4H-chromen-3-yl)methyl (S)-4-((3-(4-(bis(2-chloroethyl)amino)phenyl)-1-methoxy-1-oxopropan-2-yl)amino)-4-oxobutanoate] | 12.8 ± 0.32 µM
COC(=O)[C@H](Cc1ccc(N(CCCl)CCCl)cc1)NC(=O)CCCC(=O)OCc1coc2ccc(OC)cc2c1=O [Compound 18e, (6-Methoxy-4-oxo-4H-chromen-3-yl)methyl (S)-5-((3-(4-(bis(2-chloroethyl)amino)phenyl)-1-methoxy-1-oxopropan-2-yl)amino)-5-oxopentanoate] | 8.98 ± 0.26 µM
Cc1ccc2occ(CN)c(=O)c2c1 [Compound 19] | > 20 µM
COc1ccc2occ(CN)c(=O)c2c1 [Compound 20] | > 20 µM
Cc1ccc2occ(CNC(=O)c3ccc(N(CCCl)CCCl)cc3)c(=O)c2c1 [Compound 21a, 4-(Bis(2-chloroethyl)amino)-N-((6-methyl-4-oxo-4H-chromen-3-yl)methyl)benzamide] | 14.9 ± 1.06 µM
Cc1ccc2occ(CNC(=O)[C@H](Cc3ccc(N(CCCl)CCCl)cc3)NC=O)c(=O)c2c1 [Compound 21b, (S)-3-(4-(bis(2-chloroethyl)amino)phenyl)-2-formamido-N-((6-methyl-4-oxo-4H-chromen-3-yl)methyl)propanamide] | 9.42 ± 0.29 µM
Cc1ccc2occ(CNC(=O)[C@H](Cc3ccc(N(CCCl)CCCl)cc3)NC(=O)OC(C)(C)C)c(=O)c2c1 [Compound 21c, Tert-butyl (S)-(3-(4-(bis(2-chloroethyl)amino)phenyl)-1-(((6-methyl-4-oxo-4H-chromen-3-yl)methyl)amino)-1-oxopropan-2-yl)carbamate] | 12.7 ± 0.48 µM
COC(=O)[C@H](Cc1ccc(N(CCCl)CCCl)cc1)NC(=O)CCC(=O)NCc1coc2ccc(C)cc2c1=O [Compound 21d, Methyl (S)-3-(4-(bis(2-chloroethyl)amino)phenyl)-2-(4-(((6-methyl-4-oxo-4H-chromen-3-yl)methyl)amino)-4-oxobutanamido)propanoate] | 6.87 ± 0.19 µM
COC(=O)[C@H](Cc1ccc(N(CCCl)CCCl)cc1)NC(=O)CCCC(=O)NCc1coc2ccc(C)cc2c1=O [Compound 21e, Methyl (S)-3-(4-(bis(2-chloroethyl)amino)phenyl)-2–(5-(((6-methyl-4-oxo-4H-chromen-3-yl)methyl)amino)-5-oxopentanamido)propanoate] | 4.47 ± 0.15 µM
COc1ccc2occ(CNC(=O)c3ccc(N(CCCl)CCCl)cc3)c(=O)c2c1 [Compound 22a, 4-(Bis(2-chloroethyl)amino)-N-((6-methoxy-4-oxo-4H-chromen-3-yl)methyl)benzamide] | 10.6 ± 0.58 µM
COc1ccc2occ(CNC(=O)[C@H](Cc3ccc(N(CCCl)CCCl)cc3)NC=O)c(=O)c2c1 [Compound 22b, (S)-3-(4-(bis(2-chloroethyl)amino)phenyl)-2-formamido-N-((6-methoxy-4-oxo-4H-chromen-3-yl)methyl)propanamide] | 4.65 ± 0.22 µM
COc1ccc2occ(CNC(=O)[C@H](Cc3ccc(N(CCCl)CCCl)cc3)NC(=O)OC(C)(C)C)c(=O)c2c1 [Compound 22c, Tert-butyl (S)-(3-(4-(bis(2-chloroethyl)amino)phenyl)-1-(((6-methoxy-4-oxo-4H-chromen-3-yl)methyl)amino)-1-oxopropan-2-yl)carbamate] | 9.87 ± 0.36 µM
COC(=O)[C@H](Cc1ccc(N(CCCl)CCCl)cc1)NC(=O)CCC(=O)NCc1coc2ccc(OC)cc2c1=O [Compound 22d, Methyl (S)-3-(4-(bis(2-chloroethyl)amino)phenyl)-2-(4-(((6-methoxy-4-oxo-4H-chromen-3-yl)methyl)amino)-4-oxobutanamido)propanoate] | 3.05 ± 0.14 µM
